33 compounds from ChEMBL document CHEMBL1149566, “Himbacine derived thrombin receptor (PAR-1) antagonists: SAR of the pyridine ring” (Bioorg Med Chem Lett, 2007) can be followed below.

Broadly, the IC50 is the point on the concentration scale where inhibition reaches its midpoint. The Cmax is the maximum level reached in the sampled fluid or tissue. In general, AUC(0-t) refers to the area under the concentration-time curve up to a stated or last time point. By inhibition is commonly meant the relative decrease from the control value, in per cent. One may read the Ki as the dissociation constant of the complex between target and ligand, obtained from inhibition or displacement. Usually inhibition in vivo stands for the share of the control response that was lost under treatment.

Calls of active or inactive are those of the source. The calls are words filed in the database; no cut-off is given here.

The target of data set [1] is T1, Proteinase-activated receptor 1 (Homo sapiens, UniProt P25116).
T1 sequence (P25116 whole entry): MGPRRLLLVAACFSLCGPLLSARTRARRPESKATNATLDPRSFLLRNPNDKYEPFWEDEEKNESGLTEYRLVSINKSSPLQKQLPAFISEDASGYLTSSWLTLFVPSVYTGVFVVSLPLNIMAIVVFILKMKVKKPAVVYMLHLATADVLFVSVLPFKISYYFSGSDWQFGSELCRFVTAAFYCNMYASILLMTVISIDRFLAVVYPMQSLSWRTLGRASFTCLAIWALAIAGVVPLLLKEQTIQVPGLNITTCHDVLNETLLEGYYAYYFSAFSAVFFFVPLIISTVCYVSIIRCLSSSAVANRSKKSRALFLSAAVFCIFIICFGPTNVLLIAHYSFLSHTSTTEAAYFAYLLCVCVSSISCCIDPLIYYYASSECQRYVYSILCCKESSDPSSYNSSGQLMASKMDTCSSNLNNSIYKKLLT
Kind of data set: (§1) Displacement of [3H]haTRAP from human PAR1 receptor in platelet membrane. The format is cell membranes. Background: Loss of bound radioactivity is the signal in a displacement assay; it reports binding, not function.

Data set [2] is described as follows: Cmax in rat. It counts as ADME, organism-based. The following applies: in vivo.
A short description of data set [3]: AUC (0 to 4 hrs) in rat. It counts as ADME, organism-based. Also on record: time < 4 hr; concentration or dose not given beside the values. The following applies: plasma.
The test system of data set [4] is Cynomolgus monkey. As to the kind of experiment: Ex vivo inhibition of platelet aggregation in cynomolgus monkey at 3 mg/kg after 6 hrs. The format is functional. The conditions noted are these: Macaca fascicularis.
Data set [5] addresses T2, Proteinase-activated receptor 1 (Homo sapiens) (UniProt P25116).
T2 sequence (whole entry): T1 sequence (P25116 whole entry)
Kind of data set: Displacement of [3H]haTRAP from human PAR1 receptor in platelet membrane at 1 uM. The format is cell membranes.

Data set [6] deals with T2, Proteinase-activated receptor 1 (Homo sapiens). The data set is described as §1. The format is cell membranes.
For the next data set, the target named is Cannabinoid receptor 2 (Homo sapiens, UniProt P34972). As to the kind of experiment: Binding affinity to cannabinoid CB2 receptor.
The subject of data set [7] is Cynomolgus monkey. Kind of data set: Ex vivo inhibition of platelet aggregation in cynomolgus monkey at 3 mg/kg up to 4 hrs. It counts as functional, organism-based. More on the design: dose 3 mg/kg. The following applies: Macaca fascicularis.

Cannabinoid receptor 2, sequence (P34972 whole entry): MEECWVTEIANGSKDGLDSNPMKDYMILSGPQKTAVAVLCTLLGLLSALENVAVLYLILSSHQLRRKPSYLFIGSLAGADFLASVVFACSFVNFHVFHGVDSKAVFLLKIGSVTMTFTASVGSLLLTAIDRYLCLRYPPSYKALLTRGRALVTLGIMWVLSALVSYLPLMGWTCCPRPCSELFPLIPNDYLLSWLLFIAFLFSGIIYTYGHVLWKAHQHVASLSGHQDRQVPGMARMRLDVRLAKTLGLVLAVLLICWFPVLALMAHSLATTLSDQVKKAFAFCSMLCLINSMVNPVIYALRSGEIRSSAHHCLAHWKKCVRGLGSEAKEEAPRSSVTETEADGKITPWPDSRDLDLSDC

In data set [1], `C[C@H]1OC(=O)[C@@H]2C[C@@H]3CCCC[C@H]3[C@H](/C=C/c3ccc(C4CCCC4)cn3)[C@H]12` registered an IC50 of 115 nM. For `C[C@H]1OC(=O)[C@@H]2C[C@@H]3CCCC[C@H]3[C@H](/C=C/c3ccc(-c4nccs4)cn3)[C@H]12`, in data set [1], the concentration for half-maximal inhibition (IC50) amounted to 47 nM. As to `C[C@H]1OC(=O)[C@@H]2C[C@@H]3CCCC[C@H]3[C@H](/C=C/c3ccc(-c4ccccn4)cn3)[C@H]12`, the Cmax in data set [2] came to 251 ng/mL. This compound also returned an AUC(0-t) at 4 h in data set [3] of 509 ng·h/mL. In data set [1], this compound displayed a concentration for half-maximal inhibition (IC50) of 22 nM.

In data set [2], `C[C@H]1OC(=O)[C@@H]2C[C@@H]3CCCC[C@H]3[C@H](/C=C/c3ccc(-c4cccc(C(F)(F)F)c4)cn3)[C@H]12` registered a Cmax of 1130 ng/mL. For the same compound, the AUC(0-t) at 4 h in data set [3] amounted to 3010 ng·h/mL. Besides, the result with Cynomolgus monkey [4] was Active. As for `C[C@H]1OC(=O)[C@@H]2C[C@@H]3CCCC[C@H]3[C@H](/C=C/c3ccc(N4CCN(c5ccccc5)CC4)cn3)[C@H]12`, the IC50 in data set [1] worked out at 3300 nM. As for `C[C@H]1OC(=O)[C@@H]2C=C3CCCC[C@H]3[C@H](/C=C/c3nc4ccccc4o3)[C@H]12`, the inhibition in data set [5] came out at 38%. The same measure, in the same setting: to `C[C@H]1OC(=O)[C@@H]2C[C@@H]3CCCC[C@H]3[C@H](/C=C/c3ccc(N4CCN(C)CC4)cn3)[C@H]12` belongs 12%.

In the case of `C[C@H]1OC(=O)[C@@H]2C=C3CCCC[C@H]3[C@H](/C=C/c3ccccc3)[C@H]12`, in data set [5], the inhibition was found to be 2%. For the same compound, the result in data set [6] was inactive. As to `C[C@H]1OC(=O)[C@@H]2C=C3CCCC[C@H]3[C@H](/C=C/c3ccc(-c4ccccc4)cn3)[C@H]12`, the IC50 in data set [1] was 43 nM. The compound `C[C@H]1OC(=O)[C@@H]2C[C@@H]3CCCC[C@H]3[C@H](/C=C/c3ccc(N4CCCC4)cn3)[C@H]12` returned an IC50 in data set [1] of 29 nM. The compound also displayed an inhibition constant Ki at Cannabinoid receptor 2 of 487 nM.

`C[C@H]1OC(=O)[C@@H]2C[C@@H]3CCCC[C@H]3[C@H](/C=C/c3ccc(-c4ccc(Cl)s4)cn3)[C@H]12` (racemic) gave a Cmax in data set [2] of 343 ng/mL. The AUC(0-t) at 4 h in data set [3] amounted to 1060 ng·h/mL. In data set [1], this compound gave an IC50 of 36 nM. `C[C@H]1OC(=O)[C@@H]2C=C3CCCC[C@H]3[C@H](/C=C/c3cnccn3)[C@H]12` returned an inhibition in data set [5] of 1%.

Take `C[C@H]1OC(=O)[C@@H]2C=C3CCCC[C@H]3[C@H](/C=C/c3cccnc3)[C@H]12`: in data set [5], the inhibition was found to be 11%.

`C[C@H]1OC(=O)[C@@H]2C=C3CCCC[C@H]3[C@H](/C=C/c3ccccn3)[C@H]12`: the inhibition in data set [5] amounted to 16%. The compound further displayed an IC50 in data set [1] of 3600 nM. In turn, `CCc1nc(/C=C/[C@@H]2[C@@H]3[C@@H](C)OC(=O)[C@@H]3C=C3CCCC[C@H]32)ccc1-c1ccccc1` registered an IC50 in data set [1] of 285 nM. For the compound `Cc1cccc(/C=C/[C@@H]2[C@@H]3[C@@H](C)OC(=O)[C@@H]3C=C3CCCC[C@H]32)c1`, the outcome in data set [6] was inactive. In turn, `C[C@H]1OC(=O)[C@@H]2C=C3CCCC[C@H]3[C@H](/C=C/c3nccs3)[C@H]12` gave an inhibition in data set [5] of 14%.

As to `C[C@H]1OC(=O)[C@@H]2C[C@@H]3CCCC[C@H]3[C@H](/C=C/c3ccc(-c4ncc[nH]4)cn3)[C@H]12`, in data set [1], the IC50 is 1320 nM. `C[C@H]1OC(=O)[C@@H]2C[C@@H]3CCCC[C@H]3[C@H](/C=C/c3ccc(-c4ccc[n+]([O-])c4)cn3)[C@H]12` yielded an IC50 in data set [1] of 207 nM. With `CCc1ccc(/C=C/[C@H]2[C@@H]3CCCC[C@H]3C[C@H]3C(=O)O[C@H](C)[C@@H]23)nc1`, the IC50 in data set [1] amounted to 263 nM. In turn, `C[C@H]1OC(=O)[C@@H]2C[C@@H]3CCCC[C@H]3[C@H](/C=C/c3ccc(-c4ccccc4)cn3)[C@H]12` showed a peak concentration (Cmax) in data set [2] of 223 ng/mL. In data set [3], this compound registered an area under the curve AUC(0-t) at 4 h of 451 ng·h/mL. Compound `C[C@H]1OC(=O)[C@@H]2C[C@@H]3CCCC[C@H]3[C@H](/C=C/c3ccc(-c4cncn4C)cn3)[C@H]12` came in with an IC50 in data set [1] of 145 nM. On the same count and under the same terms, to `C[C@H]1OC(=O)[C@@H]2C[C@@H]3CCCC[C@H]3[C@H](/C=C/c3ccc(N4CCOCC4)cn3)[C@H]12` belongs 440 nM.

Take `C[C@H]1OC(=O)[C@@H]2C[C@@H]3CCCC[C@H]3[C@H](/C=C/c3ccc(-c4cccs4)cn3)[C@H]12` (racemic): the highest level in data set [2] (Cmax) was 109 ng/mL. The compound also showed an AUC(0-t) at 4 h in data set [3] of 160 ng·h/mL. Besides, the IC50 in data set [1] worked out at 16 nM. Compound `Cc1nc(/C=C/[C@@H]2[C@@H]3[C@@H](C)OC(=O)[C@@H]3C=C3CCCC[C@H]32)ccc1-c1ccccc1` registered an IC50 in data set [1] of 130 nM. `C[C@H]1OC(=O)[C@@H]2C=C3CCCC[C@H]3[C@H](/C=C/c3cnc4ccccc4c3)[C@H]12` showed an inhibition in data set [5] of 45%. In turn, `C[C@H]1OC(=O)[C@@H]2C[C@@H]3CCCC[C@H]3[C@H](/C=C/c3ccc(-c4ccco4)cn3)[C@H]12` (racemic) returned an IC50 in data set [1] of 12 nM. Same read-out and setting: to `C[C@H]1OC(=O)[C@@H]2C[C@@H]3CCCC[C@H]3[C@H](/C=C/c3ccc(-c4cnccn4)cn3)[C@H]12` belongs 88 nM. Take `C[C@H]1OC(=O)[C@@H]2C[C@@H]3CCCC[C@H]3[C@H](/C=C/c3ccc(-c4cccnc4)cn3)[C@H]12`: in data set [2], the Cmax was found to be 1820 ng/mL. Besides, the AUC(0-t) at 4 h in data set [3] was 4230 ng·h/mL. Besides, the result in the data set on Cynomolgus monkey [7] was Active. In data set [1], the IC50 came to 22 nM. This compound displayed a Ki at Cannabinoid receptor 2 of 13000 nM. Besides, in the data set on Cynomolgus monkey [4], 3 mg/kg produced 70% inhibition in vivo. For `C[C@H]1OC(=O)[C@@H]2C=C3CCCC[C@H]3[C@H](/C=C/c3cncnc3)[C@H]12`, in data set [5], the inhibition came out at 5%. In data set [1], `C[C@H]1OC(=O)[C@@H]2C[C@@H]3CCCC[C@H]3[C@H](/C=C/c3ccc(-c4ccncc4)cn3)[C@H]12` displayed an IC50 of 2140 nM. `C[C@H]1OC(=O)[C@@H]2C[C@@H]3CCCC[C@H]3[C@H](/C=C/c3ccc(-c4ccsc4)cn3)[C@H]12` (racemic): the Cmax in data set [2] turned out to be 461 ng/mL. The same compound showed an AUC(0-t) at 4 h in data set [3] of 434 ng·h/mL. This compound also yielded an IC50 in data set [1] of 11 nM. In data set [1], `Cc1cccc(/C=C/[C@@H]2[C@@H]3[C@@H](C)OC(=O)[C@@H]3C=C3CCCC[C@H]32)n1` displayed an IC50 of 350 nM.
